Experimental findings from publication PMC6582431 (Chemmedchem, 2018) are described below.

Each structure is given as a SMILES string. Some results are limits rather than exact numbers.

The test system of assay [1] is carboxylesterases (CEs). Kind of assay: CE activity in rat liver microsomes. It counts as biochemical. The conditions noted are these: for CEs activity, percent of control: C inhib=10 μM in rat liver microsomes, Table 2; for CEs (10 μM), percent of control: 10 μM in rat liver microsomes. On the technique in general: Liver microsomes are vesicles of endoplasmic reticulum, rich in cytochrome P450 enzymes.

Assay [2] has as its target T1, FAAH (Mus musculus, UniProt O08914).
T1 sequence (O08914 1-579): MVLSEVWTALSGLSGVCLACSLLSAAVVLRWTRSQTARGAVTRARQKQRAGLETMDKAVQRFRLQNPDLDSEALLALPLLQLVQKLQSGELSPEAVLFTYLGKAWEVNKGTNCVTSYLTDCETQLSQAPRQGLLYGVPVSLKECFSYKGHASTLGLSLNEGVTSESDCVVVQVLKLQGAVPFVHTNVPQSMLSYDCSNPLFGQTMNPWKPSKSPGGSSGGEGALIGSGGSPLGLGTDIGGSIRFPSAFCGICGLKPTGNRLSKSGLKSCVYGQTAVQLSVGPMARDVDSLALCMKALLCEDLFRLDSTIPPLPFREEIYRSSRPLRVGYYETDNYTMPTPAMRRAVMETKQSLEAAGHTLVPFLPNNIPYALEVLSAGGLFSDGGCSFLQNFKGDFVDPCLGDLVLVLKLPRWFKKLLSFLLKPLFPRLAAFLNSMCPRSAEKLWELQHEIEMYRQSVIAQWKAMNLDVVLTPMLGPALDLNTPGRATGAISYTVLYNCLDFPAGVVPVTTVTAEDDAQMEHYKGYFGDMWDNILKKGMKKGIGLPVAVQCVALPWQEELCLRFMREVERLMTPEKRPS
Kind of assay: In vivo FAAH inhibition, brain, after oral administration to mice.

Assay [3] deals with T2, MAGL (Rattus norvegicus, UniProt Q8R431).
T2 sequence (Q8R431 1-303): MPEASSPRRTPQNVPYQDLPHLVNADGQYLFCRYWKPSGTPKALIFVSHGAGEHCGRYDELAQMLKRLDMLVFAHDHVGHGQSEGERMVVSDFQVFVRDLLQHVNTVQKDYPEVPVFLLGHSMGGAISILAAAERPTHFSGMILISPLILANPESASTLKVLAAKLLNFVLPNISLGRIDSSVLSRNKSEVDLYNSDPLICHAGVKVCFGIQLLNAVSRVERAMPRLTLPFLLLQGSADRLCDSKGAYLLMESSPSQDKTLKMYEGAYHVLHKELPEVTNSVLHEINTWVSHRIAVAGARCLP
Kind of assay: MAGL activity in rat cerebellum cytosol. The conditions noted are these: C inhib=100 μM in rat cerebellum cytosol; for MAGL activity, percent of control: Table 2. It counts as biochemical.

Assay [4] deals with T3, FAAH (Rattus norvegicus, UniProt P97612).
T3 sequence (P97612 1-579): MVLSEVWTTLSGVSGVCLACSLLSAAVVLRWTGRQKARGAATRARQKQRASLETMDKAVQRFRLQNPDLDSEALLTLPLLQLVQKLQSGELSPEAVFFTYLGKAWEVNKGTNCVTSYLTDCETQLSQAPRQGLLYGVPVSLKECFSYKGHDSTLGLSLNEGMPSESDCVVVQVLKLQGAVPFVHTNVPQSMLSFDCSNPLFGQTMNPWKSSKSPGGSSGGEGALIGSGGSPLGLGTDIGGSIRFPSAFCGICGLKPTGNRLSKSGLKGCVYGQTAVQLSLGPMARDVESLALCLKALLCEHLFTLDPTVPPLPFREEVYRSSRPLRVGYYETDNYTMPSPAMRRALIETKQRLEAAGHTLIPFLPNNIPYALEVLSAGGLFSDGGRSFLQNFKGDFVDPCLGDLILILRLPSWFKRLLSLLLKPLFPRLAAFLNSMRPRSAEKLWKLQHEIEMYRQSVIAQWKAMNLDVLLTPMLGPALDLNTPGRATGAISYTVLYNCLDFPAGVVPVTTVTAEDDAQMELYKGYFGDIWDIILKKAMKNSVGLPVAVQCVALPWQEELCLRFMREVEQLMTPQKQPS
Kind of assay: In vitro FAAH activity in rat brain homogenates/membranes. The assay is classed as biochemical. The conditions noted are these: for FAAH activity, percent of control, 10 nM / FAAH activity, percent of control, 100 nM: rat brain homogenates, 15 min pre-incubation.

The target of assay [5] is T1, FAAH. Kind of assay: In vivo FAAH inhibition, liver, after oral administration to mice.
Setting [6] is: 30 mg kg^−1 p.o. in mice, 1 h after administration, Table 2.
Setting [7] is: 30 mg kg^−1 p.o. in mice, 1 h after administration (footnote f), Table 5.
[8] abbreviates: 0.1 mg kg^−1 p.o. in mice, 8 h after administration, Table 4.

In the case of `O=C(N1CCC(Cc2ccccc2)CC1)n1nnc2ccccc21` [Compound 10 h], the “CEs activity, percent of control” value in assay [1] was 24±2% of control. Also, the “Brain FAAH activity, percent of control” value in assay [2] (setting [6]) was 8±1% of control. For the same compound, in assay [3], the “MAGL activity, percent of control” value is on record as 7±5% of control. Further, in assay [4] (Table 2), the “FAAH activity, percent of control, 10 nM” value is reported as 0±0% of control and the “FAAH activity, percent of control, 100 nM” value was 0±0% of control. For the same compound, the “Liver FAAH activity, percent of control” value in assay [5] (setting [6]) is given as 6±1% of control.

Consider `COc1cc(OC)cc(N(C)C(=O)n2nnc3ccccc32)c1` [Compound 10 c], for which, in assay [4] (Table 2), the “FAAH activity, percent of control, 100 nM” value is 76±0% of control.

Turning to `O=C(N1CCN(c2ccccc2)CC1)n1nnc2ccccc21` [Compound 10 j], in assay [1], the “CEs activity, percent of control” value is 28±2% of control. In addition, the “Brain FAAH activity, percent of control” value in assay [2] (setting [6]) is listed as 88±7% of control. The “MAGL activity, percent of control” value in assay [3] was 12±4% of control. In addition, in assay [4] (Table 2), the “FAAH activity, percent of control, 10 nM” value is listed as 1±0% of control and the “FAAH activity, percent of control, 100 nM” value was 0±0% of control. The “Liver FAAH activity, percent of control” value in assay [5] (setting [6]) is given as 30±5% of control.

As to `CN(C(=O)n1ccnc1)c1ccccc1` [Compound 8 a, N ‐Methyl‐N‐phenyl‐1H‐imidazole‐1‐carboxamide], the inhibition (as a rule, the relative decrease from the control value, in per cent) at 10 µM in assay [4] (read-out: FAAH inhibition) is 88%.

Regarding `CN(C(=O)n1nnc2ccccc21)c1ccc(F)cc1F` [Compound 10 b, N ‐(2,4‐Difluorophenyl)‐N‐methyl‐1H‐benzo[d][1,2,3]triazole‐1‐carboxamide], in assay [1], the “CEs activity, percent of control” value is given as 40±1% of control. Further, the “MAGL activity, percent of control” value in assay [3] is 70±6% of control. Moreover, in assay [4] (Table 2), the “FAAH activity, percent of control, 10 nM” value was 35±3% of control and the “FAAH activity, percent of control, 100 nM” value is given as 2±1% of control.

For `CN(C(=O)n1cnc(-c2ccccc2)c1)c1ccccc1` [Compound 8 b, N ‐Methyl‐N,4‐diphenyl‐1H‐imidazole‐1‐carboxamide], the “CEs (10 μM), percent of control” value in assay [1] (Table 5) is recorded as 105±5% of control. Moreover, the “Brain FAAH activity, percent of control” value in assay [2] (setting [7]) was 14±17^[f] Percent of control. In assay [4] (Table 5), the “FAAH activity, percent of control, 100 nM” value is 84±7% of control. Further, in assay [5] (setting [7]), the “Liver FAAH activity, percent of control” value is 11±5^[f] Percent of control.

On to `O=C(Nc1ccc(F)cc1F)n1nnc2ccccc21` [Compound 10 d, N ‐(2,4‐Difluorophenyl)‐1H‐benzo[d][1,2,3]triazole‐1‐carboxamide], for which the “FAAH activity, percent of control, 100 nM” value in assay [4] (Table 2) was 100±5% of control.

For the compound `O=C(N1CCCCCCC1)n1nnc2ccccc21` [Compound 10 m], the “CEs activity, percent of control” value in assay [1] is 30±2% of control. The “MAGL activity, percent of control” value in assay [3] is listed as 58±6% of control. Also, in assay [4] (Table 2), the “FAAH activity, percent of control, 10 nM” value was 62±6% of control and the “FAAH activity, percent of control, 100 nM” value is listed as 15±1% of control.

With `O=C(N1CCN(Cc2ccccc2)CC1)n1cnc(-c2ccccc2)c1` [Compound 8 g], the “CEs (10 μM), percent of control” value in assay [1] (Table 5) was 52±2% of control. Moreover, in assay [3] (Table 5), the “MAGL (100 μM), percent of control” value is 61±6% of control. Also, the “FAAH activity, percent of control, 100 nM” value in assay [4] (Table 5) is recorded as 1±0% of control.

On to `CC1(C)COCN1C(=O)n1nnc2cccnc21` [Compound 11 e], for which the “CEs (10 μM), percent of control” value in assay [1] (Table 4) was 61±11% of control. In assay [2] (0.1 mg kg^−1, mouse, p.o., 8 h post-dose), the “cerebral (brain) FAAH inhibition” value was “over 85%”. In assay [2] (setting [8]), the “Brain FAAH activity, percent of control” value is reported as 12±4% of control. In addition, the “MAGL (100 μM), percent of control” value in assay [3] (Table 4) is listed as 72±5% of control. Besides, in assay [5] (setting [8]), the “Liver FAAH activity, percent of control” value is 14±7% of control. Moreover, in assay [5] (mouse, po, read-out: peripheral (liver) FAAH inhibition), the inhibition at 0.1 mg/kg is greater than 85%.

Regarding `C[C@@H]1CCC[C@H](C)N1C(=O)n1nnc2ccccc21` [Compound 10 n], the “CEs activity, percent of control” value in assay [1] is 28±1% of control. Besides, in assay [3], the “MAGL activity, percent of control” value was 35±5% of control. Moreover, the “FAAH activity, percent of control, 100 nM” value in assay [4] (Table 2) is reported as 71±7% of control.

For `CC1(C)OCCN1C(=O)n1nnc2ccccc21` [Compound 10 o], in assay [1], the “CEs activity, percent of control” value was 60±7% of control. Further, in assay [3], the “MAGL activity, percent of control” value is reported as 84±25% of control. Also, in assay [4] (Table 2), the “FAAH activity, percent of control, 10 nM” value is recorded as 71±2% of control and the “FAAH activity, percent of control, 100 nM” value is given as 17±3% of control.
